Assay results published in patent US7368477B2, “Benzofuranyl alkanamine derivatives and uses thereof” (Wyeth, priority 2005, dated 2008).
Where two headings read alike, the source gives them in different places.

Key:
[1] = molecular target: T1, human 5-hydroxytryptamine-2C (h5-HT2C) receptor (Homo sapiens, UniProt P28335); assay: [125I]DOI binding to membranes of CHO cells expressing the human 5-HT2C receptor
T1 construct: expressed in transfected cells; host or cells: CHO (Chinese Hamster Ovary) cells; membrane preparation
T1 sequence (P28335 33-458): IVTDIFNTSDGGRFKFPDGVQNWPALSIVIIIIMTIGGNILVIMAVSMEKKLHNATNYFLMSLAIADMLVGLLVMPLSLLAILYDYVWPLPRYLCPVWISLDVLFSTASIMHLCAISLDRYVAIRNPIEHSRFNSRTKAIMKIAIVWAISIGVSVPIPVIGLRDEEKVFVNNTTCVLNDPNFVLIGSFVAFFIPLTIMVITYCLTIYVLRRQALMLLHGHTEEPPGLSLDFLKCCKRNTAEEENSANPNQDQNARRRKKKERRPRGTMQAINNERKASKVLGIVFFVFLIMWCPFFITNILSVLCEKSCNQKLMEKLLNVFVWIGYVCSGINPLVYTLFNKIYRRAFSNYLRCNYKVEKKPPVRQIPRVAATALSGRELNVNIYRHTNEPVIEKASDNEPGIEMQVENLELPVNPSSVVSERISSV

human 5-HT2C receptor = molecular target: T2, human 5-HT2C receptor (Homo sapiens, UniProt P28335); assay: Calcium mobilization (FLIPR) in CHO cells stably expressing the human 5-HT2C receptor; assay type: cell-based; settings: for Emax: CHO, read-out: 5-HT2C Function EMax (%); for EC50: calcium mobilization, h5-HT2C CHO cells, read-out: 5-HT2C Function EC50
T2 sequence (P28335 33-458): T1 sequence (P28335 33-458)

[2] = read-out: 5-HT2C Binding Ki avg

SMILES | Ki [1, 2] [nM] | Emax (human 5-HT2C receptor) [%] | EC50 (human 5-HT2C receptor) [nM] | melting point | Ki ([1]; reference compounds, [125I]DOI displacement, h5-HT2C CHO membranes, read-out: Ki (95% confidence interval)) [nM] | Kd ([1]; saturation binding with increasing concentrations of [125I]DOI, read-out: dissociation constant, KD) [nM]
Cc1ccccc1-c1cccc2cc(CN)oc12 [Compound 12, 1-[7-(2-methylphenyl)-1-benzofuran-2-yl]methanamine] | 1 to 10 | 70 | < 10 | 222 to 224 °C |  | 
NCc1cc2ccc(Cl)c(-c3ccccc3Cl)c2o1 [Compound 16, 1-[6-chloro-7-(2-chlorophenyl)-1-benzofuran-2-yl]methanamine] | 0.01 to 1 | 90 | < 10 | 208 to 210 °C |  | 
NCc1cc2cc(F)cc(-c3ccc(Cl)cc3Cl)c2o1 [Compound 9, {[7-(2,4-dichlorophenyl)-5-fluoro-1-benzofuran-2-yl]methyl}amine] | 0.01 to 1 | 90 | < 10 |  |  | 
NCc1cc2ccc(F)c(-c3ccccc3Cl)c2o1 [Compound 17, 1-[7-(2-chlorophenyl)-6-fluoro-1-benzofuran-2-yl]methanamine] |  |  |  | > 250 °C |  | 
Cc1ccc(Cl)cc1-c1cc(F)cc2cc(CN)oc12 [Compound 14, 1-[7-(5-chloro-2-methylphenyl)-5-fluoro-1-benzofuran-2-yl]methanamine] | 1 to 10 | 80 | 10 to 200 | 208 to 210 °C |  | 
Cc1cc(Cl)ccc1-c1cc(F)cc2cc(CN)oc12 [Compound 13, 1-[7-(4-chloro-2-methylphenyl)-5-fluoro-1-benzofuran-2-yl]methanamine] | 1 to 10 | 80 | 10 to 200 | 172 to 174 °C |  | 
CSc1ccc2c(c1)C(N1CCN(C)CC1)Cc1ccccc1S2 (stereo not shown) [Methiothepin, reference compound] |  |  |  |  | 4.6 | 
Cc1ccccc1-c1cc(Cl)cc2cc(CN)oc12 [Compound 4, {[5-chloro-7-(2-methylphenyl)-1-benzofuran-2-yl]methyl}amine] |  | 90 | 10 to 200 |  |  | 
NCc1cc2cc(F)cc(-c3cc(Cl)ccc3Cl)c2o1 [Compound 11, 1-[7-(2,5-dichlorophenyl)-5-fluoro-1-benzofuran-2-yl]methanamine] | 0.01 to 1 | 70 | < 10 | 245 to 247 °C |  | 
NCc1cc2cc(Cl)cc(-c3ccccc3F)c2o1 [Compound 2, {[5-chloro-7-(2-fluorophenyl)-1-benzofuran-2-yl]methyl}amine] | 1 to 10 | 80 | 200 to 2000 |  |  | 
NCc1cc2cc(F)cc(-c3c(Cl)cccc3Cl)c2o1 [Compound 7, {[7-(2,6-dichlorophenyl)-5-fluoro-1-benzofuran-2-yl]methyl}amine] | 0.01 to 1 | 100 | < 10 |  |  | 
COc1ccccc1-c1cc(Cl)cc2cc(CN)oc12 [Compound 5, {[5-chloro-7-(2-methoxyphenyl)-1-benzofuran-2-yl]methyl}amine] | 1 to 10 | 90 | 10 to 200 |  |  | 
NCc1cc2cc(Cl)cc(-c3ccccc3C(F)(F)F)c2o1 [Compound 6, ({5-chloro-7-[2-(trifluoro methyl)phenyl]-1-benzofuran-2-yl}methyl)amine] | 10 to 100 | 90 | 200 to 2000 | 215 to 218 °C (dec.) |  | 
COc1ccccc1-c1cc(F)cc2cc(CN)oc12 [Compound 10, 1-[5-fluoro-7-(2-methoxyphenyl)-1-benzofuran-2-yl]methanamine] | 1 to 10 | 80 | 10 to 200 | 128 to 130 °C |  | 
NCc1cc2cccc(-c3c(Cl)cccc3Cl)c2o1 [Compound 15, 1-[7-(2,6-dichlorophenyl)-1-benzofuran-2-yl]methanamine] | 0.01 to 1 | 90 | < 10 | 260 to 262 °C |  | 
I.NCc1cc2cc(Cl)cc(-c3ccccc3)c2o1 [Compound 1, [(5-chloro-7-phenyl-1-benzofuran-2-yl)methyl]amine] | 10 to 100 | 70 | 200 to 2000 | > 225 °C |  | 
Cc1ccccc1-c1cc(F)cc2cc(CN)oc12 [Compound 8, {[5-fluoro-7-(2-methylphenyl)-1-benzofuran-2-yl]methyl}amine] | 1 to 10 | 90 | < 10 |  |  | 
COc1cc(CC(C)N)c(OC)cc1I (stereo not shown) [[^125I] DOI, reference compound] |  |  |  |  |  | 0.4
NCc1cc2cc(Cl)cc(-c3ccccc3Cl)c2o1 [Compound 3, {[5-chloro-7-(2-chlorophenyl)-1-benzofuran-2-yl]methyl}amine] |  | 100 | < 10 |  |  | 
